B1: Jen1p (Saccharomyces cerevisiae S288C) (protein)
chain: SSSITDEKISGEQQQPAGRKLYYNTSTFAEPPLVDGEGNPINYEPEVYNPDHEKLYHNPSLPAQSIQDTRDDELLERVYSQDQGVEYEEDEEDKPNLSAASIKSYALTRFTSLLHIHEFSWENVNPIPELRKMTWQNWNYFFMGYFAWLSAAWAFFCVSVSVAPLAELYDRPTKDITWGLGLVLFVRSAGAVIFGLWTDKSSRKWPYITCLFLFVIAQLCTPWCDTYEKFLGVRWITGIAMGGIYGCASATAIEDAPVKARSFLSGLFFSAYAMGFIFAIIFYRAFGYFRDDGWKILFWFSIFLPILLIFWRLLWPETKYFTKVLKARKLILSDAVKANGGEPLPKANFKQKMVSMKRTVQKYWLLFAYLVVLLVGPNYLTHASQDLLPTMLRAQLGLSKDAVTVIVVVTNIGAICGGMIFGQFMEVTGRRLGLLIACTMGGCFTYPAFMLRSEKAILGAGFMLYFCVFGVWGILPIHLAELAPADARALVAGLSYQLGNLASAAASTIETQLADRYPLERDASGAVIKEDYAKVMAILTGSVFIFTFACVFVGHEKFHRDLSSPVMKKYINQVEEYEADGLSISDIVEQKTECASVKMIDSNVSKTYEEHIETV

Columns and labels:
Jen1p = molecular target: T1, Jen1p (Saccharomyces cerevisiae, UniProt P36035); test: […]-lactate uptake in Jen1p-overexpressing yeast; format: cell-based
T1 sequence (P36035 2-616): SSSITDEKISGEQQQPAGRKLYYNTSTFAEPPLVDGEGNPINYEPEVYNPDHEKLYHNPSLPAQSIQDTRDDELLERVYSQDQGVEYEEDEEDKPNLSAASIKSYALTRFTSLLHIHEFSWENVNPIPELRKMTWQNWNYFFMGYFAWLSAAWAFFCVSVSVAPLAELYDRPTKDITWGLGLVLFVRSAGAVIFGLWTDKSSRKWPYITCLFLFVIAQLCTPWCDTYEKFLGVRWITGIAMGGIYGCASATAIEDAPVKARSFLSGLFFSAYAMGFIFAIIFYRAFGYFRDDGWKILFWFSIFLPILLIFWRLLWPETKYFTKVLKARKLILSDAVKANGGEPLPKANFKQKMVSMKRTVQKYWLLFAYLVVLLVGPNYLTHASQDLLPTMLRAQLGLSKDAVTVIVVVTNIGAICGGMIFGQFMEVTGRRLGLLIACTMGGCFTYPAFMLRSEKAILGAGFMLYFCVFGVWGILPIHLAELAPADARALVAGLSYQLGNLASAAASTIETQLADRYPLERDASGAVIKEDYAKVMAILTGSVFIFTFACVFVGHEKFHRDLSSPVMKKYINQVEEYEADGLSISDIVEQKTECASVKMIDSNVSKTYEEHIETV

selenite uptake = substrate: O=[Se](O)O; test: selenite uptake; format: cell-based, Saccharomyces cerevisiae; details: competitive with lactate

Molecule	Ki (Jen1p) [µM]	Km (selenite uptake) [µM]
CC(O)C(=O)O (centres unmarked) [lactate]	900	–
B1	–	910 ± 130

— paper PMC2982120 (2010)
